Laboratory results taken from patent EP0024779A1, “Drugs for use with intrauterine devices and intrauterine devices containing said drugs” (Shaw, Seth Thomas, Jr., priority 1979, dated 1981).

What was measured:
fibrinolytic activity [1] = test: Fibrinolytic inhibition, potency relative to dibromopropamidine; type: biochemical; conditions: for Relative Potency: relative to dibromopropamidine, reciprocal of the concentration producing inhibition equivalent to dibromopropamidine
Description: The numerical values are expressed as a reciprocal of the concentration of the drug producing the equivalent inhibition to the dibromopropamidine. Where no values for relative potency are listed such values have not been specifically determined.

[2] = test system: IUD associated uterine hemmorhage; conditions: systemic (oral) intake; cited from earlier work
fibrinolytic activity [3] = conditions: over a prolonged period of time inside the uterus; cited from earlier work

SMILES: N=C(N)c1ccc(OCCCCCOc2ccc(C(=N)N)cc2Br)c(Br)c1 [Dibromopentamidine]
- Relative Potency (fibrinolytic activity [1]): 3.6

SMILES: N=C(N)c1ccc(OCCCOc2ccc(C(=N)N)cc2Br)c(Br)c1 [Dibromopropamidine]
- Relative Potency (fibrinolytic activity [1]): 1.0

SMILES: N=C(N)c1ccc(OCCCCCCOc2ccc(C(=N)N)cc2Cl)c(Cl)c1 [Dichlorohexamidine]
- Relative Potency (fibrinolytic activity [1]): 1.9

SMILES: N=C(N)c1ccc(OCCCCCCOc2ccc(C(=N)N)cc2I)c(I)c1 [Diiodohexamidine]
- Relative Potency (fibrinolytic activity [1]): 7.5

SMILES: N=C(N)c1ccc(OCCCCCOc2ccc(C(=N)N)cc2I)c(I)c1 [Diiodopentamidine]
- Relative Potency (fibrinolytic activity [1]): 6.8

SMILES: NCCCCCC(=O)O [EACA, epsilon aminocaproic acid]
- IUD associated uterine hemmorhage [2]: alleviated
- inhibitor concentration required to be effective (fibrinolytic activity [3]): 0.001 mol/L

SMILES: N=C(N)c1ccc(OCCCCCCCOc2ccc(C(=N)N)cc2)cc1 [Heptamidine]
- Relative Potency (fibrinolytic activity [1]): 1.9

SMILES: N=C(N)c1ccc(OCCCCCCOc2ccc(C(=N)N)cc2)cc1 [Hexamidine]
- Relative Potency (fibrinolytic activity [1]): 1.6

SMILES: N=C(N)c1ccc(OCCCCCCOc2ccc(C(=N)N)cc2I)cc1 [Monoiodohexamidine]
- Relative Potency (fibrinolytic activity [1]): 4.4

SMILES: N=C(N)Nc1ccc(C(=O)Oc2ccc([N+](=O)[O-])cc2)cc1 [NPG3, p-nitrophenyl-p'-guanidinobenzoate]
- anti-fibrinolytic effect greater than that of dibromopropamidine (fibrinolytic activity [1]; on a molar concentration basis): ~100 times

SMILES: N=C(N)c1ccc(OCCCCCCCCOc2ccc(C(=N)N)cc2)cc1 [Octamidine]
- Relative Potency (fibrinolytic activity [1]): 2.6

SMILES: N=C(N)c1ccc(OCCCCCOc2ccc(C(=N)N)cc2)cc1 [Pentamidine]
- Relative Potency (fibrinolytic activity [1]): 2.4

SMILES: N=C(N)c1ccc(Oc2ccc(C(=N)N)cc2)cc1 [Phenamidine]
- Relative Potency (fibrinolytic activity [1]): 0.2

SMILES: N=C(N)c1ccc(OCCCOc2ccc(C(=N)N)cc2)cc1 [Propamidine]
- Relative Potency (fibrinolytic activity [1]): 1.2

SMILES: N=C(N)c1cccc(OCCCCCOc2cccc(C(=N)N)c2)c1 [m-Pentamidine]
- Relative Potency (fibrinolytic activity [1]): 0.6

SMILES: NC[C@H]1CC[C@H](C(=O)O)CC1 [tranexamic acid]
- IUD associated uterine hemmorhage [2]: alleviated
- inhibitor concentration required to be effective (fibrinolytic activity [3]): 0.0001 mol/L
